# Test results taken from ChEMBL document CHEMBL5380808, “Design, Synthesis, and Biological Activity of Marinacarboline Analogues as STAT3 Pathway Inhibitors for Docetaxel-Resistant Triple-Negative Breast Cancer” (J Med Chem, 2023).
# The source made the active and inactive calls. No cut-off for these calls is given here.
# What was measured:
# MDA-MB-231 [1] = assay: Induction of cell cycle arrest at G2/M phase in docetaxel-resistant human MDA-MB-231-DTR cells assessed as downregulation of Cdc25C expression level at 2.5 to 10 uM incubated for 36 hrs by Western blot analysis; type: functional, cell-based; settings: dose 2.5-10 µM
# [2] = biological target: Signal transducer and activator of transcription 3 (Homo sapiens) (UniProt P40763); assay: Inhibition of STAT3 phosphorylation at Y705 residue in docetaxel-resistant human MDA-MB-231-DTR cells assessed as decrease in phosphorylated STAT3 level at 2.5 to 10 uM incubated for 24 hrs by Western blot analysis; type: cell-based; settings: dose 2.5-10 µM
# [3] = Induction of cell cycle arrest in docetaxel-resistant human MDA-MB-231-DTR cells assessed as accumulation at S phase at 5 uM incubated for 48 hrs by PI staining based flow cytometry analysis (reference value: 10.56%); type: functional
# [4] = Synergistic antiproliferative activity against docetaxel-resistant human MDA-MB-231-DTR cells assessed as combination index at 4 uM incubated for 72 hrs in presence of 4 uM of docetaxel by Chou-Talalay method; type: functional
# MDA-MB-231 [5] = assay: Inhibition of cell invasion in docetaxel-resistant human MDA-MB-231-DTR cells at 3 to 6 uM incubated for 24 hrs by transwell invasion assay; type: functional, cell-based; settings: dose 3-6 µM
# [6] = Induction of cell cycle arrest in docetaxel-resistant human MDA-MB-231-DTR cells assessed as accumulation at G2/M phase at 2.5 uM incubated for 36 hrs by PI staining based flow cytometry analysis (reference value: 13.16%); type: functional
# [7] = biological target: T1, Signal transducer and activator of transcription 1-alpha/beta (Homo sapiens) (UniProt P42224); assay: Inhibition of STAT1 phosphorylation at S727 residue in docetaxel-resistant human MDA-MB-231-DTR cells assessed as decrease in phosphorylated STAT1 level at 2.5 to 10 uM incubated for 24 hrs by Western blot analysis; type: cell-based; settings: dose 2.5-10 µM
# T1 sequence (whole entry): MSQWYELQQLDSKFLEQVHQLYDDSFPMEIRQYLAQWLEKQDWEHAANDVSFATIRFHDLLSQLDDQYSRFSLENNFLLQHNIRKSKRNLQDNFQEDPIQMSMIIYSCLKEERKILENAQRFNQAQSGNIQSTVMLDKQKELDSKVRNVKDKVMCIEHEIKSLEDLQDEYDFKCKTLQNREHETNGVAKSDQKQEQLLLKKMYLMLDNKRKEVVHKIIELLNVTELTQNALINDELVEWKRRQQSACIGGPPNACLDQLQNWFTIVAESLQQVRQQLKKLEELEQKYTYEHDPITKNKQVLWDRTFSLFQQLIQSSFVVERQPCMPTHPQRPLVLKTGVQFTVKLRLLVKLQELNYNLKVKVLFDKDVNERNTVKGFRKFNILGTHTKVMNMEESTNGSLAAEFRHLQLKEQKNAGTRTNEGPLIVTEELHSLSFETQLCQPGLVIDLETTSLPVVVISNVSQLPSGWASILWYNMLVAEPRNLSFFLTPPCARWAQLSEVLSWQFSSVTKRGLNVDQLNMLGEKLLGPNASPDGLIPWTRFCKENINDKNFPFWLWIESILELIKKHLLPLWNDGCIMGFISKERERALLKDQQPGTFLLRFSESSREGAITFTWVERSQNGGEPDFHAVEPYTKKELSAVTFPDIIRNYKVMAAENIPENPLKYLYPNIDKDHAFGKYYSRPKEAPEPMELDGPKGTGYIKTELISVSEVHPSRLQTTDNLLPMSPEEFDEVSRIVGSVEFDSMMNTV
# MDA-MB-231 [8] = assay: Induction of apoptosis in docetaxel-resistant human MDA-MB-231-DTR cells assessed as downregulation of Bcl2 expression level at 2.5 to 10 uM incubated for 48 hrs by Western blot analysis; type: functional, cell-based; settings: dose 2.5-10 µM
# MDA-MB-231 [9] = assay: Antitumor activity against docetaxel-resistant human MDA-MB-231-DTR cells xenografted in BALB/c mouse assessed as reduction in tumor volume at 10 mg/kg, ip daily for 12 days in presence of docetaxel; type: functional, organism-based; settings: time 12.0 day
# [10] = Synergistic antiproliferative activity against docetaxel-resistant human MDA-MB-231-DTR cells assessed as combination index at 4 uM incubated for 72 hrs in presence of 1 uM of docetaxel by Chou-Talalay method; type: functional
# [11] = Induction of cell cycle arrest in docetaxel-resistant human MDA-MB-231-DTR cells assessed as accumulation at G0/G1 phase at 5 uM incubated for 36 hrs by PI staining based flow cytometry analysis (reference value: 74.77%); type: functional
# [12] = Induction of cell cycle arrest in docetaxel-resistant human MDA-MB-231-DTR cells assessed as accumulation at S phase at 2.5 uM incubated for 36 hrs by PI staining based flow cytometry analysis (reference value: 11.57%); type: functional
# [13] = Antiproliferative activity against docetaxel-resistant human MDA-MB-231-DTR cells assessed as reduction in cell viability incubated for 72 hrs by sulforhodamine B assay; type: functional, cell-based; settings: MDA-MB-231, 72 h
# [14] = Induction of cell cycle arrest in docetaxel-resistant human MDA-MB-231-DTR cells assessed as accumulation at subG1 phase at 5 uM incubated for 48 hrs by PI staining based flow cytometry analysis (reference value: 0.41%); type: functional
# MDA-MB-231 [15] = assay: Antitumor activity against docetaxel-resistant human MDA-MB-231-DTR cells xenografted in BALB/c mouse assessed as downregulation of vimentin level in tumor tissue at 10 mg/kg, ip daily for 12 days by Immunohistochemical analysis; type: functional, organism-based; settings: time 12.0 day
# MDA-MB-231 [16] = assay: Antitumor activity against docetaxel-resistant human MDA-MB-231-DTR cells xenografted in BALB/c mouse assessed as downregulation of Ki67 level in tumor tissue at 10 mg/kg, ip daily for 12 days by Immunohistochemical analysis; type: functional, organism-based; settings: time 12.0 day
# MDA-MB-231 [17] = assay: Antiproliferative activity against human MDA-MB-231 cells assessed as reduction in cell viability incubated for 72 hrs by sulforhodamine B assay; type: functional, cell-based; settings: MDA-MB-231, 72 h
# [18] = Induction of cell cycle arrest in docetaxel-resistant human MDA-MB-231-DTR cells assessed as accumulation at S phase at 5 uM incubated for 36 hrs by PI staining based flow cytometry analysis (reference value: 10.56%); type: functional
# [19] = Antiproliferative activity against […] cells assessed as reduction in cell viability incubated for 72 hrs by MTT assay; type: functional, cell-based
# [20] = Synergistic antiproliferative activity against docetaxel-resistant human MDA-MB-231-DTR cells assessed as combination index at 2 uM incubated for 72 hrs in presence of 1 uM of docetaxel by Chou-Talalay method; type: functional
# MDA-MB-231 [21] = assay: Antitumor activity against docetaxel-resistant human MDA-MB-231-DTR cells xenografted in BALB/c mouse assessed as tumor growth inhibition at 10 mg/kg, ip daily for 12 days; type: functional, organism-based; settings: time 12.0 day
# [22] = Synergistic antiproliferative activity against docetaxel-resistant human MDA-MB-231-DTR cells assessed as combination index at 2 uM incubated for 72 hrs in presence of 2 uM of docetaxel by Chou-Talalay method; type: functional
# [23] = Induction of cell cycle arrest in docetaxel-resistant human MDA-MB-231-DTR cells assessed as accumulation at G2/M phase at 10 uM incubated for 36 hrs by PI staining based flow cytometry analysis (reference value: 13.16%); type: functional
# Signal transducer and activator of transcription 3 (Homo sapiens), sequence (P40763 whole entry): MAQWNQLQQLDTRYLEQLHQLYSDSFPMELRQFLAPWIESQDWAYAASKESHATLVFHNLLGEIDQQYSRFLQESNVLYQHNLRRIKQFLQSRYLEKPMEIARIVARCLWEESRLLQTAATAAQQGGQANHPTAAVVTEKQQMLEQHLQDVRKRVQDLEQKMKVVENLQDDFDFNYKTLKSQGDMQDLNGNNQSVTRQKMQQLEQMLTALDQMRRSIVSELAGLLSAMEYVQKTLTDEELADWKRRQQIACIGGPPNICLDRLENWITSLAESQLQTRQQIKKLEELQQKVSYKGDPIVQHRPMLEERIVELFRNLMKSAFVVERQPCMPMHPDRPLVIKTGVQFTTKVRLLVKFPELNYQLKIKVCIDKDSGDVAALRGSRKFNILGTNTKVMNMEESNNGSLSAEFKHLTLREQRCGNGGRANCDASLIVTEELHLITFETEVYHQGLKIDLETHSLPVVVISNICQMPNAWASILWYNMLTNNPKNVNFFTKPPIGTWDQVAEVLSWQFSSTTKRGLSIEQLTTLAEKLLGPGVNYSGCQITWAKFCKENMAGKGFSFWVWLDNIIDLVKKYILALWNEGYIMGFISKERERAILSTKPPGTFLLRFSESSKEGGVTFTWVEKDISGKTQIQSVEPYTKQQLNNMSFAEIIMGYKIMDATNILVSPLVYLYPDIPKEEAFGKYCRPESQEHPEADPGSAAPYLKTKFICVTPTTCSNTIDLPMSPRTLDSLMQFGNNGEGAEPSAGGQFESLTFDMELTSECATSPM
structure (smiles),measurement,setting,value
O=C(NCCc1c[nH]c2ccccc12)c1cc2c([nH]c3ccccc32)c(C(=O)c2ccc(Br)cc2)n1,Activity,MDA-MB-231 [1],Active
same,inhibition,[2],Active
same,Activity,[3],12.49%
same,CI,[4],0.37
same,inhibition,MDA-MB-231 [5],Dose-Dependent Effect
same,Activity,[6],25.18%
same,inhibition,[7],inactive
same,Activity,MDA-MB-231 [8],Active
same,Activity,MDA-MB-231 [9],Active
same,CI,[10],0.38
same,Activity,[11],51.37%
same,Activity,[12],12.13%
same,IC50,[13],2.96 µM
same,Activity,[14],19.53%
same,Activity,MDA-MB-231 [15],Active
same,Activity,MDA-MB-231 [16],Active
same,IC50,MDA-MB-231 [17],3.11 µM
same,Activity,[18],14.21%
same,IC50,[19],3.24 µM
same,CI,[20],0.26
same,Activity,MDA-MB-231 [21],Active
same,CI,[22],0.23
same,Activity,[23],29.72%
